Consider one molecule from patent US7247317B2, “Compositions comprising phenylaminothiophenacetic acid derivatives for the treatment of acute or adult respiratory distress syndrome (ARDS) and infant respiratory distress syndrome (IRDS)” (Altana Pharma AG, priority 1998, dated 2007).

This assay relates to Sprague Dawley rats. The experiment in a line: Lung lavage model of ARDS in ventilated rats: arterial oxygen partial pressure (PaO2). Type of assay: in vivo, rat. To be noted: for PaO2: 120 min, mean ± SD. The text has this:
Anesthetized Sprague Dawley rats are artificially ventilated with pure oxygen and a positive endexiratory pressure (PEEP; in order to ensure oxygenation of the rats) and lavaged until their endogenous lung surfactant is washed out [D. Häfner, R. Beume, U. Kilian, G. Kraznai and Burkhard Lachmann: Dose-response comparison of five lung surfactant (LSF) preparations in an animal model of adult respiratory distress syndrome (ARDS); D. Häfner, P.-G. Germann, D. Hauschke, Pulmonary Pharmacology (1994) 7, 319-332]. This is manifested by the fact that in the animals the preliminary values of the arterial oxygen partial pressure (PaO2) of 500-550 mmHg (in the case of pure oxygen ventilation and PEEP) decrease to values of 50-110 mmHg. Animals of the control group which are not treated with lung surfactant remain with their PaO2 at these low values throughout the observation period. 60 minutes after the PaO2 has decreased to these values, lung surfactant or lung surfactant together with 4-(2,6-dichloroanilino)-3-thiopheneacetic acid is instilled intratracheally. The blood gases are determined 30, 60, 90 and 120 minutes after instillation.
In Table 1 below, in line A the average values (± standard deviation) of the PaO2 are indicated in mmHg for the time 120 minutes (constant PEEP of 8 cm H2O) after intratracheal instillation of lung surfactant 1 h after the last lavage. The table contains data about the values after a sole i.v. administration of 4-(2,6-dichloroanilino)-3-thiopheneacetic acid (Eltenac) in comparison to untreated controls. It can be seen from the table that the sole administration of Eltenac has no influence on the PaO2. This follows by comparison with the untreated control animals. The administration of lung surfactant (25 or 100 mg/kg) leads to a rise in the PaO2. […] In Table 2, in line A the PaO2 values after joint intratracheal (i.tr.) administration of lung surfactant together with Eltenac are indicated in increasing dosages. […]

For `O=C(O)Cc1cscc1Nc1c(Cl)cccc1Cl` [Eltenac, 4-(2,6-dichloroanilino)-3-thiopheneacetic acid], the PaO2 reads like this: (Eltenac i.tr. 3.0 mg/kg alone after last lavage) 92 ± 69 mmHg; (Eltenac i.v. 22.1 mg/kg alone, directly after lavage, PEEP 8 cm H2O) 82 ± 35 mmHg. Moreover, for the setting “sole administration of Eltenac vs untreated control animals”, the “influence on the PaO2 (in words)” value was “no influence”.
